According to patent US20250188164A1, “PHARMACEUTICAL COMPOSITION COMPRISING ANTI-CTLA4-ANTI-PD-1 BISPECIFIC ANTIBODY AND CHIAURANIB” (AKESO PHARMACEUTICALS, INC., priority 2022, published 2025):

Tested on: mixed culture of DC, PBMC and A375 cells
Assay: Lymphocyte-tumor cell mixed reaction system, cytokine secretion by ELISA
Type: cell-based, human
Conditions: A375 cells treated with 15 μM chiauranib for 48 h, BiAb004(hG1TM) 300 nM
Procedure: Freshly isolated PBMCs (from healthy donors) were adhered to the wall overnight. Mononuclear cells were collected. GM-CSF (2000 U/mL, from peprotech, Cat. No. 300-03) and IL-4 (2000 U/mL from peprotech, Cat. No. 200-04) were added. Induction was performed after 3 days of culture. For the iDC group, half of the medium was exchanged, and GM-CSF (2000 U/mL) and IL4 (2000 U/mL) were added. For the mDC group, half of the medium was exchanged, and GM-CSF (2000 U/mL), IFN-γ (50 ng/mL, from Sino Biological, Cat. No. 11725-HNAS-100) and LPS (100 ng/mL, from SIGMA, Cat. No. L6529) were added. The cells were cultured in an incubator for 2 days and frozen for later use.
A375 cells (purchased from ATCC, agency: Zhongyuan Ltd., Cat. No. CRL-1619) were digested conventionally, collected by centrifugation, and plated on 10 cm dishes at 2×10^6 cells/dish. Chiauranib (from Chipscreen Biosciences, Lot No. 210604) was added to one of the dishes to a final concentration of 15 μM, and a blank control group was set. The mixture was incubated in an incubator at 37° C. and 5% CO2 for 48 h (medium: DMEM+10% FBS). […] The cells were counted and plated as per DC:PBMC=1:10 in 96-well flat-bottom plates. […] The amounts of secretion of IFN-γ (purchased from Dakewe, Cat. No. 1110202) and IL-2 (purchased from Dakewe, Cat. No. 1110202) were measured by an ELISA kit.

SMILES: COc1ccc2c(Oc3ccc4c(C(=O)Nc5ccccc5N)cccc4c3)ccnc2c1 [chiauranib, N-(2-aminophenyl)-6-(7-methoxyquinoline-4-oxy)-1-naphthamide]
- secretion of IFN-γ (supernatants day 3 and day 5, FIG. 17): effectively promote
- secretion of IL-2 (supernatants day 3 and day 5, FIG. 18): effectively promote
